Earlier results on one molecule are cited in patent US8697106B2, “Coating composition” (SurModics, Inc., priority 2006, dated 2014).

Each structure is given as a SMILES string. Where only a bound is given, the exact number is not on record here.

For data set [1] the following is noted: system-wide (systemic) concentration.
The next data set has as its system bacteria. The settings on record: effective systemic concentration.

Take `NC[C@H]1O[C@H](O[C@H]2[C@H](O)[C@@H](O[C@H]3O[C@H](CO)[C@@H](O)[C@H](N)[C@H]3O)[C@H](N)C[C@@H]2N)[C@H](N)C[C@@H]1O` [tobramycin]: the system-wide toxic concentration result in data set [1] is recorded as “about 400 mcg/ml”. Further, the “effective concentration to actively control bacteria” value in the data set on bacteria was no more than 4 µg/mL.
